Assay results published in publication PMC8880783, “Structure and electron transfer pathways of an electron-bifurcating NiFe-hydrogenase” (Science Advances, 2022).
Blank lines part the entries; values can stand above or below the compound they belong to.

Columns and labels:
[1] = target: A. mobile NiFe-HydABCSL hydrogenase (heteropentamer) (A. mobile (endogenous in A. mobile cells)); experiment: cryo-EM structure; single-particle cryo-EM of the enzyme as purified, flavin-free apo state, C2 symmetry, 3.2 Å
[2] = target: A. mobile NiFe-HydABCSL hydrogenase (heteropentamer) (A. mobile (endogenous in A. mobile cells)); experiment: SEC; HiLoad Superdex 200 prepgrade XK 16/60, 25 mM tris pH 8.0, 300 mM NaCl, 5% glycerol, 2.5% trehalose, anaerobic; decamer to pentamers
NiFe-HydABCSL [3] = target: T1, NiFe-HydABCSL (Acetomicrobium mobile, UniProt I4BYB5); experiment: cryo-EM structure of complex, […] Å; format: binding; details: 100 µM FMN with 100 µM NADH and 10 µM A. mobile Fd; site in HydB Rossmann fold, next to B1 [4Fe-4S] cluster; stacked on FMN in HydB; modelled as NAD(H)
T1 construct: gene Anamo_1678; native purification from A. mobile, untagged; dimer of heteropentamers (~500 kDa by SEC; 233 kDa per pentamer); with Electron-bifurcating NiFe-hydrogenase subunit HydA; Electron-bifurcating NiFe-hydrogenase subunit HydC (NADH:ubiquinone oxidoreductase 24 kD subunit); NiFe-hydrogenase small subunit HydS; NiFe-hydrogenase large subunit HydL

NiFe-HydABCSL [4] = target: T1, NiFe-HydABCSL; experiment: H2-dependent bifurcation assay, Fd reduction at […] nm; format: biochemical; details: 100% H2, 40 µM A. mobile Fd, 1 mM NAD, enzyme retains about 0.35 FMN per mole
NiFe-HydABCSL [5] = target: T1, NiFe-HydABCSL; experiment: H2-dependent bifurcation assay, simultaneous Fd and NAD reduction; format: biochemical; details: 100% H2, 40 µM A. mobile Fd, 10 µM FMN, 1 mM NAD

Compound: A. mobile NiFe-HydABCSL hydrogenase (heteropentamer) (complex)
stoichiometry N [1]: 2
stoichiometry N [2]: 2

Compound: NC(=O)C1=CN([C@@H]2O[C@H](COP(=O)(O)OP(=O)(O)OC[C@H]3O[C@@H](n4cnc5c(N)ncnc54)[C@H](O)[C@@H]3O)[C@@H](O)[C@H]2O)C=CC1 [NADH]
structure (NiFe-HydABCSL [3]): FMN and NADH had well-defined densities in HydB

Compound: NC(=O)c1ccc[n+]([C@@H]2O[C@H](COP(=O)(O)OP(=O)(O)OC[C@H]3O[C@@H](n4cnc5c(N)ncnc54)[C@H](O)[C@@H]3O)[C@@H](O)[C@H]2O)c1 [NAD]
turnover (NiFe-HydABCSL [5]): NiFe-HydABCSL reduced the Fd only if NAD was also added

More lines, now with the values ahead:

% stimulation (NiFe-HydABCSL [4]; 10 µM FMN): ~ 35%
Compound: Cc1cc2nc3c(=O)[nH]c(=O)nc-3n(C[C@H](O)[C@H](O)[C@H](O)COP(=O)(O)O)c2cc1C [FMN]

% stimulation (NiFe-HydABCSL [4]; FAD concentration not given): ~ 10%
Compound: Cc1cc2nc3c(=O)[nH]c(=O)nc-3n(C[C@H](O)[C@H](O)[C@H](O)COP(=O)(O)OP(=O)(O)OC[C@H]3O[C@@H](n4cnc5c(N)ncnc54)[C@H](O)[C@@H]3O)c2cc1C [FAD]
